The subject of assay [1] is mouse skinned myocardium. Briefly: Force-pCa relationship (Ca2+ sensitivity of force) in skinned myocardium. Format: cell-based. As for the experimental part: (§1) Skinned ventricular myocardium was prepared according to the protocol described by Chen et al. (2010). In brief, beating hearts were excised in vivo from anesthetized WT mice of either sex (˜6 months old) and dissected in Ca^2+-Ringer's solution containing 120 mM NaCl, 19 mM NaHCO3, 5 mM KCl, 1.2 mM Na2HPO4, 1.2 mM MgSO4, 1 mM CaCl2, and 10 mM glucose, pH 7.4 at 22° C., pre-equilibrated with 95% O2/5% CO2. Basal levels of RLC phosphorylation were reduced to uniformly low levels (i.e., <10%) as described previously (Olsson et al., 2004; Stelzer et al., 2006) by perfusing hemisected hearts with Ca^2+-Ringer's solution containing 30 mM 2,3-butanedione monoxime (BDM) for 30 minutes at 22° C. before rapid freezing in liquid nitrogen for storage prior to experimental measurements. The dephosphorylation of RLC provides an appropriate background for assessment of the effects of the peptide, since RLC phosphorylation increases force production in heart muscle and speeds contraction and RLC phosphorylation is nearly nil in heart failure.
On the day of an experiment, frozen ventricles were thawed and homogenized in ice-cold relaxing solution containing 100 mM KCl, 10 mM imidazole, 5 mM MgCl2, 2 mM EGTA, and 4 mMATP, pH 7.0 at 22° C. to yield multicellular preparations with dimensions of 600-900 μm×100-250 μm using a Polytron homogenizer. The cellular homogenates were then centrifuged and subsequently resuspended in ice-cold relaxing solution containing 250 μg/ml saponin and 1% Triton X-100 for 30 minutes at 4° C. […]
(§2) The force generating properties of murine or porcine skinned myocardium were measured as a function of free [Ca^2+] in activating solutions containing salts, a Ca^2+ buffer, and MgATP (Olsson et al., 2004). Free Ca^2+, expressed as −log [Ca^2+]free, was varied between sub-threshold (pCa 7.0) and saturating (pCa 4.5) levels with respect to force development. Measurements of isometric force as a function of pCa yielded force-pCa relationships, from which was determined the Ca^2+ sensitivity of force defined as the pCa at which force was half-maximal. […]

The test system of assay [2] is porcine skinned myocardium. The assay is described as above. Format: cell-based, pig. The procedure: Skinned myocardial preparations were attached between a force transducer (for measurements of force) and a displacement motor (to impose rapid changes in length for measurements of the kinetics of force development) while in relaxing solution (Olsson et al., 2004). The temperature was then adjusted to 22° C. for measurements of the contractile properties of myocardium in the presence and absence of peptide.
The force generating properties of murine or porcine skinned myocardium were measured as a function of free [Ca^2+] in activating solutions containing salts, a Ca^2+ buffer, and MgATP (Olsson et al., 2004). Free Ca^2+, expressed as −log [Ca^2+]free, was varied between sub-threshold (pCa 7.0) and saturating (pCa 4.5) levels with respect to force development. Measurements of isometric force as a function of pCa yielded force-pCa relationships, from which was determined the Ca^2+ sensitivity of force defined as the pCa at which force was half-maximal.
The force and kinetic data presented in the following section were obtained from each muscle preparation first during maximal activation at pCa 4.5, next during submaximal activation at a pCa>4.5, and once again during activation at pCa 4.5. The preparation was then bathed in relaxing solution containing peptide, after which the identical activation sequence was imposed. Finally, the peptide was washed out of the preparation by repeated washings in relaxing solution so that control measurements could again be done in the absence of peptide. This bracketing protocol ensured that the results in the presence of peptide were corrected for time-dependent rundown of the preparations during the experiment.
Measurements of Ca^2+ sensitivity of force were also performed using skinned myocardium from pig hearts, since these hearts are more similar to human hearts with respect to protein isoform expression than are mouse hearts. Specifically, the principal myosin isoform in porcine and human hearts is the much slower β-cardiac myosin, while the principal isoform in mouse hearts is the faster α-cardiac myosin. […] The slower β-cardiac isoform would be predicted to have a greater activating effect on the cardiac thin filament due to the longer residency time of the slower myosin on the thin filament.

Assay [3] relates to murine skinned myocardium. Briefly: Kinetics of force development (rate constant of force redevelopment, ktr). Format: cell-based, mouse. The note with it: 50 μM peptide, each pCa studied. The procedure:
as §1, with “failure. […]” for “failure.”
The kinetics of force development were assessed as a function of pCa by measuring the rate of force redevelopment at each pCa following a rapid slackening and re-stretch of the muscle during steady Ca^2+ activation (Olsson et al., 2004; Stelzer et al., 2006). […]

For assay [4], the system named is mouse skinned myocardium. Briefly: Relative effects of peptides on force at submaximal pCa (scaled to force at pCa 4.5). Format: cell-based. The note with it: FIG. 7, mouse, 50 μM, intermediate pCa; untreated force ~35% of maximum. The procedure: as §1, with “The dephosphorylation of RLC provides an appropriate background for assessment of the effects of the peptide, since RLC phosphorylation increases force production in heart muscle and speeds contraction and RLC phosphorylation is nearly nil in heart failure.” left out
as §2

From patent publication US9051387B2, “Inhibition of MyBP-C binding to myosin as a treatment for heart failure” (Wisconsin Alumni Research Foundation, priority 2012, dated 2015) come the findings set out here.

Entries after “also recorded” stand apart in the source; their conditions may differ.

As to “FSSLLKKRDAFRRDAKLE (SEQ ID NO:47) [302A, 18-mer from cMyBP-C region 293-310 with S→A substitutions at positions 302 and 307]”, the “increase in Ca2+ sensitivity of force” value with mouse skinned myocardium [1] (mouse myocardium, 50 μM peptide, versus control) stood at 0.15 pCa units; in assay [2] (porcine myocardium, 50 μM peptide, versus control), 0.32 pCa units. Besides, the “pCa50 following treatment with peptide” value is listed as 5.85±0.02 in the assay with mouse skinned myocardium [1] (mouse myocardium, 50 μM peptide, control 5.70±0.02) and 5.92 in assay [2] (porcine myocardium, 50 μM peptide, control 5.60). Also, the “effect on force-pCa relationship” value in the assay on mouse skinned myocardium [1] (mouse skinned myocardium, peptide 50 μM) is recorded as “shift of the force-pCa relationship to lower Ca^2+ concentrations; also recorded: shifted to lower Ca^2+ concentrations”. Also, the “effect of washout of the peptide” value in assay [2] (porcine myocardium, after 50 μM peptide) is “reversed the effect”. The “effects on force development, porcine versus murine” value in assay [2] (skinned myocardium, FIG. 3) is “significantly greater in porcine than in murine skinned myocardium”. The “effect on rate constant of force development (ktr)” value in assay [3] was “accelerated the rate of force development at each pCa studied; also recorded: increased at each pCa studied”. Also, the “force at pCa 5.9 (scaled to force at pCa 4.5), fold of control” value in the assay on mouse skinned myocardium [4] is approximately 2 × control.
